# Laboratory results as given in patent US12582693B2, “Glutathione trisulfide (GSSSG) in neuroprotection” (The General Hospital Corporation, priority 2020, dated 2026).
# Legend:
# mice subjected to SCI = test: Murine model of spinal cord ischemia (SCI) with delayed paraplegia; motor function by Basso Mouse Scale and survival after preconditioning; format: in vivo; conditions: preconditioning 200 mg/kg IP daily for 4 days in DMSO, vs DMSO alone
# Procedure: Briefly, under anesthesia and mechanical ventilation via endotracheal intubation, SCI was induced by placing the first clip on the aortic arch between the left common carotid artery and the left subclavian artery and the second clip on the origin of the left subclavian artery. The completeness of the occlusion was ascertained by an immediate and sustained loss of any detectable pulse pressure in the femoral artery pressure tracing. After 5 min of ischemia, the clips were removed, and the chest was closed in layers. At 10 minutes of reperfusion, the arterial catheter was removed, incisions were closed, and animals were allowed to recover from anesthesia. Temperature of erector spinae muscle was monitored and maintained at 37.5° C. during whole surgery until recovery from anesthesia. In sham-operated mice, whole surgical procedure was performed as described, but no clips were applied. Motor function was quantified serially at pre-SCI, 24, 48, and 72 h after spinal cord ischemia by the Basso Mouse Scale (BMS) (Basso et al., 2006; Kakinohana et al., 2011). The maximum deficit is indicated by a score of 0. Although BMS score<6 (0 to 5) indicates paraplegia, BMS score>6 (6 to 9) indicates ability to walk.
# To examine preventive effects of GSSSG against neurofunctional deficit after SCI, mice were subjected to preconditioning with GSSSG treatment before induction of SCI. […]
# SH-SY5Y cells = test: MPP+-induced SH-SY5Y cell death, cell viability by crystal violet assay; format: cell-based; conditions: MPP+ 2 mM, DMEM/F12 (20% FBS), 37° C., 24 h
# Procedure: The effects of GSSSG on 1-methyl-4-phenylpyridinium (MPP+)-induced neuronal (SH-SY5Y cell) death were evaluated. MPP+-poisoning is an in vitro model of Parkinson's disease.
# SH-SY5Y cells were incubated with or without MPP+ (2 mM) in DMEM/F12 (20% FBS) with or without drugs at 37° C. for 24 h. Cell viability was measured using the crystal violet assay.
Compound,"Motor function (Basso Mouse Scale, BMS) / paraplegia after SCI (mice subjected to SCI; SCI 24 h after last administration, BMS up to 72 h)",Survival rate of mice after SCI (mice subjected to SCI),Protection from MPP+-induced cell death (cell viability) (SH-SY5Y cells)
"N[C@@H](CCC(=O)N[C@@H](CSSSC[C@H](NC(=O)CC[C@H](N)C(=O)O)C(=O)NCC(=O)O)C(=O)NCC(=O)O)C(=O)O [GSSSG, Glutathione trisulfide]",prevented motor functional deficit and paraplegia,did not change survival rate,protective effect
"[Na+].[Na+].[S-2] [Na2S, reference compound]",–,–,"but not Na2S, protected"
